Read-outs that look alike come from different tables or passages of the source.
B1: G-CSF: Hormone stimulating granulopoiesis; Peptide/Protein (protein, UniProt P09919 31-207, looked up)
Granulocyte …: TPLGPASSLPQSFLLKCLEQVRKIQGDGAALQEKLVSECATYKLCHPEELVLLGHSLGIPWAPLSSCPSQALQLAGCLSQLHSGLFLYQGLLQALEGISPELGPTLDTLQLDVADFATTIWQQMEELGMAPALQPTQGAMPAFASAFQRRAGGVLVASHLQSFLEVSYRVLRHLAQP

Assays:
[1] = tested on: ESC-derived neurons
Procedure, shortened: (§1)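 Mouse CGR8-2Luc ESCs in LIF-containing medium were exposed to compounds for 48 h; ESC-derived neurons (MS5 co-culture, replated day 5 in N2/bFGF medium) were exposed from day 6 to day 8. Read-outs: Tα1-FLuc, EF1α-RLuc and PI DNA content as % of control. LOAEL = lowest concentration giving a significant decrease versus baseline.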

[2] = tested on: CGR8-2Luc ESCs
Procedure, shortened: as §1

[3] = Table S1, three classes; ref per compound in the footnotes of Table S1; cited from earlier work
[4] = tested on: undifferentiated pluripotent stem cells (ESCs); test: Dual luminescence reporter test system, undifferentiated ESCs (readout not separated); assay type: cell-based, mouse; conditions: for In vitro EC20 in ESC: in vitro toxicity data expressed as EC20; for effect on promoter activities in undifferentiated cells: non-cytotoxic concentrations
Source text: Fig. 1 Synopsis of experimental protocols. The impact of compounds on neural promoter activity (FLuc, Firefly Luciferase under the control of the Tα1 promoter), general promoter activity (RLuc, Renilla Luciferase under the control of the EF1α promoter), and amount of DNA (PI, propidium iodide fluorescence in cell homogenates) was investigated in undifferentiated mouse embryonic pluripotent stem cells (ESCs) and on ESC-derived neurons. Arrows indicate the time of measurement of the three parameters. a Protocol for testing compounds effects on ESCs. CGR8-2Luc cells were plated on gelatin-coated 96-well plates in maintenance medium (BHK21 medium containing 10 % FCS, L-glutamine, NEAA, P/S, and LIF). Twenty-four hours later, cells were exposed to compounds for forty-eight hours. b Protocol for testing compounds on ESC-derived neurons. CGR8-2Luc cells were co-cultured with MS5 cells to induce neural differentiation in DMEM medium containing 15 % KO-serum, NEAA, β-mercaptoethanol, and P/S. On day 5, cells were detached and seeded on polyornithine-coated plates in DMEM medium containing N2 supplement, bFGF, and P/S; compound exposure was from day 6 to day 8
To test compounds on ESC-derived neurons, neuronal differentiation was carried out as previously described (Suter et al. [2009]; Xu et al. [2014]). Briefly, CGR8-2Luc cells were seeded on irradiated bone marrow-derived stromal MS5 cells and cultivated for 4 days in DMEM medium containing 15 % Knock-out™ Serum Replacement, non-essential amino acids, beta-mercaptoethanol, and penicillin/streptomycin. At day 5, cells were then re-plated (3 × 10^5 cells/cm^2) on polyornithine-coated 96-well plates in N2 medium containing DMEM, N2 supplement, penicillin/streptomycin, and 10 ng/ml basic human fibroblast growth factor (bFGF) (Invitrogen). […] To assess toxicity of compounds on undifferentiated pluripotent stem cells (ESCs), CGR8-2Luc cells were plated at 45,000 cells/cm^2 on 0.1 % gelatin-coated dishes in BHK21 medium, supplemented with 10 % fetal calf serum, L-glutamine, non-essential amino acids, penicillin/streptomycin, and leukemia inhibitory factor (LIF). After 24 h, compounds were added and incubated for 48 h, before luciferase expression and PI fluorescence were analyzed. In all experiments, methylmercury was used as a positive control at a concentration of 5 µM.
Luciferase activities were measured with a Dual-Luciferase™ Reporter system kit. CGR8-2Luc ES cells were lysed in 96-well plates according to the manufacturer’s instructions. Luminescence measurements were performed on a Fluostar Optima reader. Luminescence counts were expressed as percentage of promoter activity normalized by comparison with the control wells treated by DMSO. […] parameters were measured in homogenates of ESCs and in ESC-derived neurons: (1) FLuc, reflecting the activity of early neural promoter Tα1. FLuc increases during neuronal differentiation. Many neurotoxic compounds may affect FLuc expression, either through impact on neuronal differentiation, through changes of neuronal gene expression, or through killing of neurons.
After measurement of luciferase activity, DNA quantity was determined by PI assay, as previously described (Xu et al. [2014]). PI was added to cell homogenates after the luciferase test, at a final concentration of 50 µg/ml and incubated for 2 h. After incubation, fluorescence intensity was measured on a Flexstation 3 microplate reader (Excitation: 544 nm ± 15 nm; Emission: 620 nm ± 15 nm). Results are expressed as percentage of control. Propidium iodide (PI) measures total DNA content as an approximation of the cell number.

[5] = tested on: Tubulin α1 (Tα1) promoter
Procedure, shortened: (§2)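 Mouse CGR8 ESCs carrying Tα1-firefly and EF1α-Renilla luciferase reporters, treated either undifferentiated (48 h exposure after 24 h plating) or as MS5-induced neurons (exposure day 6 to day 8). Dual-luciferase luminescence expressed as % promoter activity versus DMSO control wells; 5 µM methylmercury as positive control.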

[6] = tested on: EF1α promoter
Procedure, shortened: as §2

[7] = ESC-derived neurons, 48 h exposure, PI assay (cytotoxicity)
[8] = undifferentiated ESCs, 48 h exposure, PI assay (cytotoxicity)
[9] = undifferentiated ESCs, 48 h exposure, lowest tested concentration with statistically significant decrease
[10] = ESC-derived neurons, 48 h exposure
[11] = undifferentiated ESCs, 48 h exposure

Row | Molecule | LOAEL Neurons DNA [1, 7] | LOAEL ESC DNA [2, 8] | class based on clinical evidence for neurotoxicity [3] | In vitro EC20 in ESC [4] | LOAEL ESC Tα1 [5, 9] | LOAEL Neurons EF1α [6, 10] | LOAEL ESC EF1α [6, 11] | effect on promoter activities in undifferentiated cells [4] | effect on general promoter activity in neurons [6] | cytotoxicity on ESCs [2] | effect on neural promoter activity in ESCs [5] | effect on cell number in neurons [1] | LOAEL Neurons EF1α ([6]; mouse, 48 h) | LOAEL Neurons DNA [1] | LOAEL ESC DNA [2] | LOAEL ESC Tα1 [5] | LOAEL ESC EF1α [6] | LOAEL Neurons EF1α [6]
1 | C[C@]12CC[C@H](O)CC1=CC[C@@H]1[C@@H]2CC[C@]2(C)C(c3cccnc3)=CC[C@@H]12 [Abiraterone] | >2 µM | >2 µM | Possibly (developmental) | 2000 nM | >2 µM | 2 µM | >2 µM |  |  |  |  |  |  |  |  |  |  | 
2 | O=C(/C=C/c1cccc(S(=O)(=O)Nc2ccccc2)c1)NO [Belinostat] | 50 µM | 0.5 µM | Possibly (developmental) |  | 5 µM | 50 µM | 5 µM | enhanced the activities of neuronal and/or general promoters |  |  |  |  |  |  |  |  |  | 
3 | Nc1ccccc1NC(=O)c1ccc(CNC(=O)OCc2cccnc2)cc1 [Entinostat] | 50 µM | 5 µM |  |  | 50 µM | >50 µM | 5 µM | enhanced the activities of neuronal and/or general promoters | enhanced |  |  |  |  |  |  |  |  | 
4 | COc1cc2ncnc(Nc3ccc(F)c(Cl)c3)c2cc1OCCCN1CCOCC1 [Gefitinib] | 50 µM | 50 µM | Possibly (developmental) |  | 50 µM | 50 µM | 50 µM |  |  |  |  |  |  |  |  |  |  | 
5 | [Br][Hg][Br] [Mercury bromide] | >10 µM | 5 µM | Possibly (developmental) |  | 5 µM | >10 µM | 5 µM |  |  | highly cytotoxic |  |  |  |  |  |  |  | 
6 | COCC(=O)O [Methoxyacetic acid] | >50 µM | >50 µM | Possibly (developmental) |  | >50 µM | >50 µM | >50 µM |  |  |  | increase |  |  |  |  |  |  | 
7 | [CH3][Hg][Cl] [Methylmercury] | 0.5 µM | 0.5 µM | Well-established (developmental) |  | 0.5 µM | 5 µM | 0.5 µM |  |  |  |  |  |  |  |  |  |  | 
8 | COC(=O)c1ccc2c(c1)NC(=O)/C2=C(\Nc1ccc(N(C)C(=O)CN2CCN(C)CC2)cc1)c1ccccc1 [Nintedanib] | 5 µM | 5 µM | Possibly (developmental) |  | 0.5 µM | 5 µM | 5 µM |  |  |  |  |  |  |  |  |  |  | 
9 | COc1ccc2[nH]c([S+]([O-])Cc3ncc(C)c(OC)c3C)nc2c1 (stereo not drawn) [Omeprazole] | >50 µM | >50 µM | Non-neurotoxic |  | >50 µM | >50 µM | >50 µM |  |  |  |  |  |  |  |  |  |  | 
10 | Brc1ccc(Oc2cc(Br)c(Br)cc2Br)c(Br)c1 [PBDE-99] | 5 µM | >50 µM | Well-established (developmental) |  | 50 µM | 5 µM | >50 µM |  |  |  |  | moderate cell number decrease |  |  |  |  |  | 
11 | Cc1[nH]c2ccccc2c1CCNCc1ccc(/C=C/C(=O)NO)cc1 [Panobinostat] | 0.05 µM | 0.05 µM | Possibly (developmental) |  | 0.05 µM | 50 µM | 0.05 µM |  |  |  |  |  |  |  |  |  |  | 
12 | CC(C)NCC(O)COc1cccc2ccccc12 (stereo not drawn) [Propranolol] | 50 µM | >50 µM | Non-neurotoxic |  | 50 µM | >50 µM | 50 µM |  |  |  |  |  |  |  |  |  |  | 
13 | O=C(NC[C@H]1CN(c2ccc(N3CCOCC3=O)cc2)C(=O)O1)c1ccc(Cl)s1 [Rivaroxaban] | >10 µM | >10 µM | Non-neurotoxic |  | >10 µM | >10 µM | >10 µM |  |  |  |  |  |  |  |  |  |  | 
14 | C/C(O)=C(\C#N)C(=O)Nc1ccc(C(F)(F)F)cc1 [Teriflunomide] | >50 µM | >50 µM |  | 4000 to 40000 nM | >50 µM |  | >50 µM |  |  |  | increase |  | >50 µM |  |  |  |  | 
15 | C[CH2][Hg][S]c1ccccc1C(=O)[O-].[Na+] [Thimerosal] |  |  | Possibly (developmental) |  |  |  |  |  |  |  |  |  |  | 0.5 µM | 0.5 µM | 0.5 µM | 0.5 µM | 0.5 µM
16 | O=c1[nH]c(=O)c2[nH]c(=O)[nH]c2[nH]1 [Uric acid] | >50 µM | >50 µM | Non-neurotoxic |  | >50 µM |  | >50 µM |  |  |  |  |  | >50 µM |  |  |  |  | 
17 | Erythropoietin: EpoR agonist controlling erythropoiesis and neurogenesis; Peptide/Protein |  |  | Non-neurotoxic |  | >0.238 µM | >0.238 µM | >0.238 µM |  | selectively increased |  |  |  |  | >0.238 µM | >0.238 µM |  |  | 
18 | Oxytocin | >0.1 µM | >0.1 µM | Non-neurotoxic |  | >0.1 µM | >0.1 µM | >0.1 µM |  |  |  |  |  |  |  |  |  |  | 
19 | B1 |  |  | Non-neurotoxic |  | >0.00266 µM | >0.00266 µM | >0.00266 µM |  | selectively increased |  |  |  |  | >0.00266 µM | >0.00266 µM |  |  | 
